Source: patent US20260015313A1, “AMINO ACID ACTIVE ESTER AND SALT THEREOF” (PeptiDream Inc., priority 2022, published 2026)

Legend:
[1] = Differential scanning calorimetry (DSC) hazard determination (TDSC, QDSC; Category V Hazardous materials, self-reactive substances); assay type: physicochemical; conditions: about 2 mg, SUS pressure-resistant cell, to 500° C. at 10° C./min, nitrogen, line through 2,4-dinitrotoluene and benzoyl peroxide, on or above = hazardous, FIG. 2
Source text: Differential scanning calorimetry (DSC) can be used as a method for determining the hazard of an amino acid active ester (Akiyoshi et al., Netsu Sokutei 2018, 45(4), 161-167.; Sakira Kaneko, Netsu Sokutei 1995, 22(1), 36-43.). DSC is an effective means for assessing the hazard of a self-reactive substance, because it can measure the reaction starting temperature (TDSC) and the reaction heat (QDSC) with a trace amount of sample. […] In Japan, DSC is used as a test to determine whether a chemical substance falls under the Category V Hazardous materials (self-reactive substances) under the Japanese Fire Service Act.
Examples of the test for determining whether a chemical substance falls under the Category V Hazardous materials (self-reactive substances) in the Japanese Fire Service Act include a method involving using 2,4-dinitrotoluene and benzoyl peroxide as reference compounds, plotting the reference points of QDSC and TDSC for each of the compounds and drawing a straight line connecting the two points as the hazard determination line.
The QDSC and TDSC values of 2,4-dinitrotoluene (Compound No. 115) and benzoyl peroxide (Compound No. 116) were taken from the following literature: DSC Data Collection for Reactive Substances (2) (RIIS-SD-89), https://www.jniosh.johas.go.jp/publication/houkoku/houkoku_2007_03_list.html.
The detailed procedure for differential scanning calorimetry (DSC) is as follows:
The amino acid active ester (about 2 mg), which had been sealed in a SUS pressure-resistant cell, was set in a heat flux type differential scanning calorimeter, and heated to 500° C. at 10° C./min in an atmosphere of nitrogen 50 mL/min. The sealing into the cell was carried out in atmospheric air, and a blank cell was used as a reference material. The value of indium (In) measured under the same conditions was used as a standard for correction.
In FIG. 2, the dotted line indicates the hazard determination line. […] The abscissa axis indicates the log(TDSC-25) value, and the ordinate axis indicates the log QDSC value. In FIG. 2, -L-Hph-DBE_HCl indicates the hydrochloride of 3,5-dinitrobenzyl (S)-2-amino-4-phenylbutanoate (Compound No. 114), Gly-DBE_HCl indicates the hydrochloride of 3,5-dinitrobenzyl glycinate (Compound No. 112), -L-Ile-DBE_HCl indicates the hydrochloride of 3,5-dinitrobenzyl L-isoleucinate (Compound No. 111), -L-W7N-DBE_HCl indicates the hydrochloride of 3,5-dinitrobenzyl (S)-2-amino-3-(1H-pyrrolo[2,3-b]pyridin-3-yl)propanoate (Compound No. 113), -L-Ile-DCPE_HCl indicates (2,6-dichloropyridin-4-yl)methyl L-isoleucinate (Compound No. 21), -L-W7N-TEE_HCl indicates 2,2,2-trifluoroethyl (S)-2-amino-3-(1H-pyrrolo[2,3-b]pyridin-3-yl)propanoate (Compound No. 81), and Gly-DCPE_HCl indicates (2,6-dichloropyridin-4-yl)methyl glycinate (Compound No. 99).

tRNA analog (microhelix) [2] = experiment: Aminoacylation of tRNA analog (microhelix) with flexizyme dFx, acid PAGE analysis; assay type: biochemical; conditions: 5 mM substrate, 50 mM Hepes-K pH 7.5, 50 mM MgCl2, 20% DMSO, on ice overnight, FIG. 1-1, 1-2
Method: (§1) In the present embodiment, a tRNA was aminoacylated with the active ester synthesized in Example 1 as a substrate using a flexizyme. In order to conveniently confirm acylation with various amino acids, the acylation reaction was performed using, instead of an initiating tRNA (tRNA^Met), a microhelix corresponding to a short analog of the initiating tRNA and the solution after the reaction was subjected to polyacrylamide gel electrophoresis analysis under acidic conditions in order to confirm the aminoacylation efficiency. The mobility of the band derived from the microhelix is slow when it has been aminoacylated. The aminoacylation efficiency can be determined by comparing the intensity of the microhelix band to that of the acylated microhelix band.
The acylation reaction was carried out overnight on ice in a 50 mM Hepes-K buffer (pH 7.5) and 50 mM MgCl2, with a 25 µM flexizyme (dFx), a 25 μM tRNA analog (microhelix) and a 5 mM substrate added to 20% DMSO. […]
(§2) The detailed procedure was as follows: 1 μL of a 500 mM Hepes-K buffer (pH 7.5), 1 μL of a 250 µM flexizyme (dFx) and 1 μL of a 250 µM tRNA analog were added to 3 μL of ultrapure water, and the mixture was heated at 95° C. for 2 minutes, and allowed to cool at room temperature for 5 minutes. […] This solution was analyzed with 20% modified PAGE (50 mM sodium acetate, 6 M urea) under acidic conditions.

tRNA analog (microhelix) [3] = experiment: Aminoacylation of tRNA analog (microhelix) with flexizyme eFx, acid PAGE analysis; assay type: biochemical; conditions: 5 mM substrate, 50 mM Hepes-K pH 7.5, 600 mM MgCl2, 20% DMSO, on ice overnight, FIG. 1-3, 1-4
Method: as §1
The acylation reaction was carried out overnight on ice in a 50 mM Hepes-K buffer (pH 7.5) and 600 mM MgCl2, with a 25 µM flexizyme (eFx), a 25 µM tRNA analog (microhelix) and 5 mM substrate added to 20% DMSO. […]
as §2, with “follows: 4” for “follows: 1”, “7.5), 4” for “7.5), 1”, “flexizyme (eFx)” for “flexizyme (dFx)”, “and 4” for “and 1”, “to 12” for “to 3”, “for 3” for “for 2”

Structure (SMILES)	position of log QDSC vs log(TDSC-25) plot relative to hazard determination line [1]	also measured
Cl.NCC(=O)OCc1cc(Cl)nc(Cl)c1 [Gly-DCPE_HCl, (2,6-Dichloropyridin-4-yl)methyl glycinate hydrochloride]	below the hazard determination line	
NCC(=O)OCc1cc(Cl)nc(Cl)c1 [Compound No. 99, (2,6-dichloropyridin-4-yl)methyl glycinate]		acylation of tRNA analog by the flexizyme (aminoacylation efficiency) (tRNA analog (microhelix) [2]): efficiently acylated
CC[C@H](C)[C@H](N)C(=O)OCc1cc(Cl)nc(Cl)c1.Cl [L-Ile-DCPE_HCl, (2,6-Dichloropyridin-4-yl)methyl L-isoleucinate hydrochloride]	below the hazard determination line	
Cl.Cl.N[C@@H](Cc1c[nH]c2ncccc12)C(=O)OCC(F)(F)F [L-W7N-TEE_HCl, 2,2,2-Trifluoroethyl (S)-2-amino-3-(1H-pyrrolo[2,3-b]pyridin-3-yl)propanoate dihydrochloride]	below the hazard determination line	
NCC(=O)OCc1cc([N+](=O)[O-])cc([N+](=O)[O-])c1 [Gly-DBE_HCl, 3,5-dinitrobenzyl glycinate]	above the hazard determination line	
CC[C@H](C)[C@H](N)C(=O)OCc1cc(Cl)nc(Cl)c1 [Compound No. 21, (2,6-dichloropyridin-4-yl)methyl L-isoleucinate]		acylation of tRNA analog by the flexizyme (aminoacylation efficiency) (tRNA analog (microhelix) [2]): efficiently acylated
CC[C@H](C)[C@H](N)C(=O)OCc1cc([N+](=O)[O-])cc([N+](=O)[O-])c1 [L-Ile-DBE_HCl, 3,5-dinitrobenzyl L-isoleucinate]	above the hazard determination line	
N[C@@H](Cc1c[nH]c2ncccc12)C(=O)OCc1cc([N+](=O)[O-])cc([N+](=O)[O-])c1 [L-W7N-DBE_HCl, 3,5-dinitrobenzyl (S)-2-amino-3-(1H-pyrrolo[2,3-b]pyridin-3-yl)propanoate]	above the hazard determination line	
N[C@@H](CCc1ccccc1)C(=O)OCc1cc([N+](=O)[O-])cc([N+](=O)[O-])c1 [L-Hph-DBE_HCl, 3,5-dinitrobenzyl (S)-2-amino-4-phenylbutanoate]	above the hazard determination line	
N[C@@H](CCc1ccccc1)C(=O)OCC(F)(F)F [Compound No. 47, 2,2,2-trifluoroethyl (S)-2-amino-4-phenylbutanoate]		acylation of tRNA analog by the flexizyme (aminoacylation efficiency) (tRNA analog (microhelix) [3]): efficiently acylated
